Results reported in patent publication US20240216250A1, “COSMETIC PEPTIDES FOR IMPROVING SKIN REJUVENATION” (Lean Life Sciences, Inc., priority 2021, published 2024).
“Also recorded” adds a separate entry of the source.

Legend:
skin cells [1] = experiment: Collagen and fibronectin levels in skin cells upon peptide treatment; format: cell-based; settings: Example 1-18, at a particular concentration, present tense
Procedure: (§1) An additional group of skin cells are treated with one of […] (SEQ ID NO: 3) and […] (SEQ ID NO: 4) in the same manner as Example 1-1.
The fructose, glucose, and sucrose concentrations in the groups where the above peptides are treated are not affected (data not shown), while the extra cellular matrix molecules, collagen and fibronectin, are determined.

skin cells [2] = experiment: Fructose, glucose and sucrose concentration in skin cells, same manner as Example 1-1; format: cell-based; settings: Example 1-18, present tense
Procedure: (§2) Fructose concentration in 3T3-L1 cell lysates was measured using the Fructose Assay Kit (Abcam, Cambridge, UK). Six-well plates were seeded with 5×10^5 3T3-L1 cells/well one day before treating with 150 μM peptide. After 48 hours of treatment, the cells were harvested and fructose concentrations were assayed according to the manufacturer's instruction.
An additional group of skin cells are treated with one of KGGRAKD, KGG, GGR, GRA, RAK, AKD, DKA, KAR, ARG, RGG, GGK, and DKARGGK in the same manner as Example 1-1.
An additional group of skin cells were treated with […] (SEQ ID NO: 5) in the same manner as Example 1-1.
as §1

3T3-L1 cells = experiment: Fructose, glucose and sucrose concentration in adipocytes (3T3-L1 cell lysates, Fructose Assay Kit); format: cell-based, mouse
Procedure: as §2
In order to confirm the effect of peptides on reducing the fructose level in adipocytes, three groups of adipocytes were prepared. Among the three groups, one group was treated with GGR, and another group was treated with RAK. The remaining group was not treated with any peptides and used as a control group. […] Fructose—an intermediate metabolite of glucose—was measured to further probe glucose metabolism. 3T3-L1 cells treated with either peptide had lower fructose concentrations than untreated cells (FIG. 1).
An additional group of adipocytes are treated with one of KGGRAKD, KGG, GGR, GRA, RAK, AKD, DKA, KAR, ARG, RGG, GGK, and DKARGGK in the same manner as Example 1-1.

3T3-L1 mature adipocytes = experiment: Lipid accumulation in 3T3-L1 adipocytes by Oil Red O staining, with cell count; format: cell-based, mouse; settings: for Number and size of lipid droplets in adipocytes: Oil Red O, microscopy, peptides at 100 μM, three times per week for three weeks (Day 21), vs non-treated control; for Decrease in degree of lipid accumulation: 3T3-L1 mature adipocytes, quantitative Oil Red O analysis, Day 21 (H of FIG. 3); for Reduction of lipid accumulation: murine-based in vitro systems
Procedure: FIG. 3: Representative photomicrographs showing Oil Red O-stained mature adipocytes treated with peptides at 100 μM (Day 21). H: Quantitative analysis of the lipids accumulated in the adipocytes (Day 21). Control absorbance: 0.526 (Red line). I: Relative cell counts on day 21.
The effects of the minimal short peptides in blocking lipid accumulation in adipocytes were compared with their parent full-length peptide. After generating five different 3 amino acid fragments (KGG, GGR, GRA, RAK, and AKD) from the original ATS peptide (KGGRAKD (SEQ ID NO:1)), each peptide was administered to 3T3-L1 pre-adipocytes in five varying concentrations. Peptides were treated to the adipocytes three times per week for three weeks. Oil Red O staining was utilized to assess the lipid contents in mature adipocytes in culture. The morphological characteristics of 3T3-L1 mature adipocytes were observed by microscopy. […] Furthermore, the lipids were quantitatively analyzed.
The number of viable cells is counted prior to Oil Red O staining using Cell Counting Kit 8 (Dojindo). This cell viability study allows one to determine potential toxicities of the peptides and compensate for cell number variation-causing artifacts. Oil Red O is dissolved in isopropanol at […] to create a working solution. 12 ml of Oil Red O working solution is mixed with 8 ml dH2O and incubated for 10 minutes. This solution is then filtered using a 0.2 μm syringe filter. Adipocytes seeded on 96-well plates are washed with PBS twice. 10% formaldehyde is added for initial fixation and the plates are incubated for at least 30 minutes. The formaldehyde is removed and the cells are once again washed twice, this time with dH2O. 60% isopropanol is added to each well. The plates are incubated for 5 minutes. The isopropanol is removed from the wells and replaced with Oil Red O working solution. The plates are incubated for an additional 10 minutes. The Oil Red O solution is removed and washed four times with dH2O. Lastly, digital micrographs of the lipid droplets in adipocytes are taken using a light microscope. After the staining protocol, all plates are washed three times with 60% isopropanol. Each time, 5 minutes of gentle rocking was used. The Oil Red O is extracted with 100% isopropanol with gentle rocking for 5 minutes. 200 μl isopropanol per well is used as a background to measure absorbance at 492 nm using a BioTek microplate reader.

DIO mice = experiment: Body weight gain in DIO mice: obesity progression model (OPM) and obesity model (OM); format: in vivo; settings: for Prevention of body weight gain: pre-obese OPM mice on HFD; for Anti-obesity efficacy (body weight): oral administration
Procedure: Prior to oral administration, peptides were administered to DIO mice via intraperitoneal (IP) and subcutaneous (SC) injections.
In the first phase, peptides were tested on pre-obese mice that were being fed high fat diet (HFD) to induce obesity (obesity progression model, OPM). In the second phase, these peptides were given to mice that had already developed obesity (obesity model, OM). […] As the activity of these three peptides varies depending on the injection route and the disease status, all three peptides, GGR, RAK, and AKD, were tested by oral administration.
Prior to oral administration, GGR, RAK, AKD, full-length ATS, and scrambled RKG peptides were administered to OPM mice via IP and SC injections to further screen an ideal peptide composition. PBS was included as a vehicle group. GGR, RAK, and AKD peptides were discovered to impede body weight gain in OPM mice. GGR and RAK were effective when given IP injections and AKD was effective by SC injections (FIGS. 4 and 5).
The second phase signified the post-obesity stage, where the same methods from phase 1 were used on OM mice.
(§3) GGR, RAK, and AKD peptides were tested in OPM and OM mice by oral administration. […] In obesity progression, adipocytes increase in both number and size due to escalating lipid accumulation (Parlee, S. D., et al., Methods Enzymol 537, 93-122, (2014)). Using the methods described above, abdominal fat pads of GGR, RAK, AKD, or PBS-treated DIO mice were histologically analyzed. Epididymal fat tissues were harvested from two mice per experimental group. All samples were fixed in 4% paraformaldehyde, H&E-stained, and imaged. At a 10× magnification, adipocyte cell counting was performed on the digital slide images using an automated adipocyte counting macro with the ImageJ software. A default thresholding method was used and [cell] sizing boundaries of 40-40,000 were set. Limitations of the segmentation tool led to some erroneous selections or regions of interest (ROI), which were manually corrected by adding or erasing lines. The number of cells per representative field were then determined using the ROI manager in ImageJ. Two or three high power fields (hpf) per tissue and two tissue samples per group were analyzed to reduce variability. Average cell count for each group was calculated accordingly. Areas of all adipocytes of interest were measured using the ROI measurement tool (ImageJ) and average area per cell was calculated accordingly.

[3] = tested on: abdominal fat pads of DIO mice; experiment: Histological analysis of fat pads of DIO mice (adipocyte number and size); format: in vivo; settings: epididymal fat
Procedure: FIG. 10. Histological analysis fat pads. An automated system detected and counted adipocytes (yellow line). Adipocyte number and size: average of 3 hpf images from 2 mice (total 6 images/group).
as §3
The primary function of adipocytes is to store energy in the form of lipids. The volume of lipid stored in an adipocyte cell increases as the third power of the diameter. Because mature adipocytes are composed of large lipid droplets that are surrounded by very thin cytoplasmic layers, the increase in volume of an adipocyte cell likely indicates increased lipid storage. Thus, smaller adipocyte size/area translates to reduced lipid accumulation.

[4] = Examples 1-2 to 1-11, same manner as Example 1-1
[5] = post-obese OM mice, IP injection
[6] = post-obese OM mice, SC injection
[7] = 3T3-L1 cells, 150 μM peptide, 48 hours, vs untreated control (FIG. 1)

ACSSSPSKHCGGGSESPLKRQG
Collagen in skin cells vs control group (skin cells [1]): significantly higher than the control group
Fibronectin in skin cells vs control group (skin cells [1]): significantly higher than the control group
Fructose concentration in skin cells (skin cells [2]): not affected
Glucose concentration in skin cells (skin cells [2]): not affected
Sucrose concentration in skin cells (skin cells [2]): not affected

KAR
Fructose concentration in adipocytes vs control group (3T3-L1 cells; [4]): significantly lower than the control group

GRA
Number and size of lipid droplets in adipocytes (3T3-L1 mature adipocytes): moderate differences in the morphology of lipid droplets
Fructose concentration in adipocytes vs control group (3T3-L1 cells; [4]): significantly lower than the control group

GGR
Decrease in degree of lipid accumulation (3T3-L1 mature adipocytes): approximately 20%
Number and size of lipid droplets in adipocytes (3T3-L1 mature adipocytes): smaller than those in the non-treated control
Reduction of lipid accumulation (3T3-L1 mature adipocytes): effective in reducing lipid accumulation
Prevention of body weight gain / body weight change (DIO mice; [5]): positive effects on prevention of body weight gain
Prevention of body weight gain / body weight change (DIO mice; [6]): effective
Prevention of body weight gain (DIO mice; IP injection): positive effects on prevention of body weight gain; also recorded: effective
Fructose concentration in adipocytes vs control group (3T3-L1 cells; [7]): significantly lower than the control group

ARG
Fructose concentration in adipocytes vs control group (3T3-L1 cells; [4]): significantly lower than the control group

DKARGGK
Fructose concentration in adipocytes vs control group (3T3-L1 cells; [4]): significantly lower than the control group

AKD
Decrease in degree of lipid accumulation (3T3-L1 mature adipocytes): approximately 20%
Number and size of lipid droplets in adipocytes (3T3-L1 mature adipocytes): smaller than those in the non-treated control
Reduction of lipid accumulation (3T3-L1 mature adipocytes): effective in reducing lipid accumulation
Prevention of body weight gain (DIO mice; SC injection): best working peptide; also recorded: effective
Anti-obesity efficacy (body weight) (DIO mice; pre-obese OPM mice): efficacious over GGR
Fructose concentration in adipocytes vs control group (3T3-L1 cells; [4]): significantly lower than the control group

RAK
Decrease in degree of lipid accumulation (3T3-L1 mature adipocytes): approximately 20%
Number and size of lipid droplets in adipocytes (3T3-L1 mature adipocytes): smaller than those in the non-treated control
Reduction of lipid accumulation (3T3-L1 mature adipocytes): effective in reducing lipid accumulation
Average cell count per field ([3]; adipocytes, 10× magnification, ImageJ, rank among all experimental groups (FIG. 10)): highest
Activity by histological analysis of the fat pads ([3]; H&E, DIO mice): more active than GGR; also recorded: highest efficacy
Average adipocyte area per cell ([3]; ImageJ ROI, rank among all experimental groups (FIG. 10)): lowest
Prevention of body weight gain / body weight change (DIO mice; [5]): positive effects on prevention of body weight gain
Prevention of body weight gain / body weight change (DIO mice; [6]): effective
Anti-obesity efficacy (body weight) (DIO mice; post-obese OM mice): has anti-obesity efficacy
Prevention of body weight gain (DIO mice; IP injection): positive effects on prevention of body weight gain; also recorded: effective
Anti-obesity efficacy (body weight) (DIO mice; pre-obese OPM mice): efficacious over GGR; also recorded: has anti-obesity efficacy
Fructose concentration in adipocytes vs control group (3T3-L1 cells; [7]): significantly lower than the control group

GGK
Fructose concentration in adipocytes vs control group (3T3-L1 cells; [4]): significantly lower than the control group

DKA
Fructose concentration in adipocytes vs control group (3T3-L1 cells; [4]): significantly lower than the control group

ACTGSTQHQGGGSEHGAMEI
Collagen in skin cells vs control group (skin cells [1]): significantly higher than the control group
Fibronectin in skin cells vs control group (skin cells [1]): significantly higher than the control group
Fructose concentration in skin cells (skin cells [2]): not affected
Glucose concentration in skin cells (skin cells [2]): not affected
Sucrose concentration in skin cells (skin cells [2]): not affected

KGG
Number and size of lipid droplets in adipocytes (3T3-L1 mature adipocytes): moderate differences in the morphology of lipid droplets
Fructose concentration in adipocytes vs control group (3T3-L1 cells; [4]): significantly lower than the control group

RGG
Fructose concentration in adipocytes vs control group (3T3-L1 cells; [4]): significantly lower than the control group

RKG [reference compound]
Anti-obesity effects (DIO mice; IP and SC studies, regardless of injection route or schedule): no anti-obesity effects
Prevention of body weight gain / body weight change (DIO mice; [5]): did not show meaningful efficacy over the vehicle group
Prevention of body weight gain (DIO mice; IP injection): did not show meaningful efficacy over the vehicle group; also recorded: no anti-obese effects
Prevention of body weight gain (DIO mice; SC injection): no anti-obese effects
